Measurements as given in patent US20060069132A1, “Azolecarboxamide herbicides” (priority 2004, published 2006).

What was measured:
cocklebur = assay: Test B pre-/postemergence herbicide test; assay type: in vivo, Xanthium strumarium; details: for Cocklebur plant response rating: postemergence, visual rating
Outline: (§1)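 Plants compared with untreated controls 13–15 days post-treatment and given a visual 0–100 injury score. Applications: preemergence to seeds; postemergence at 1- to 4-leaf (2–18 cm); paddy species flooded, 2-leaf stage. Vehicle non-phytotoxic, surfactant included.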

pigweed = assay: Test B pre-/postemergence herbicide test; assay type: in vivo, Amaranthus retroflexus; details: for Pigweed plant response rating: postemergence, visual rating
Outline: (§2)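 Visual rating, 0 (no effect) to 100 (complete control), versus untreated controls after 13–15 d in greenhouse. Pre- and postemergence applications (postemergence plants 2–18 cm, 1–4 leaves); flooded paddy arm at 2-leaf stage. Compounds in non-phytotoxic solvent plus surfactant.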

rice = assay: Test B flooded paddy test; assay type: in vivo, Oryza sativa; details: 1000 g ai/ha, visual rating, scale 0 to 100 (0 no effect, 100 complete control), 13 to 15 days
Outline: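 Read-out: visual comparison with controls, scored 0 to 100, where 100 means complete control and 0 no effect. Formulated chemicals were applied postemergence to plants 2–18 cm tall (1- to 4-leaf), or to flooded-paddy plants at the 2-leaf stage, then held 13 to 15 days under glass.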

ducksalad = assay: Test B flooded paddy test; assay type: in vivo, Heteranthera limosa; details: 1000 g ai/ha, visual rating, scale 0 to 100 (0 no effect, 100 complete control), 13 to 15 days
Outline: (§3)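 Formulated test chemicals went onto postemergence plants measuring 2 to 18 cm, at one to four leaves. For the paddy assay, species had reached two leaves. Scoring took place 13–15 days later by eye, relative to untreated plants, using 0 for no effect up to 100 for full control.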

barnyardgrass [1] = assay: Test B flooded paddy test; assay type: in vivo, Echinochloa crus-galli; details: 1000 g ai/ha, visual rating, scale 0 to 100 (0 no effect, 100 complete control), 13 to 15 days
Outline: as §3

morningglory = assay: Test B pre-/postemergence herbicide test; assay type: in vivo, Ipomoea coccinea; details: for Morningglory plant response rating: postemergence, visual rating
Outline: as §1

wheat = assay: Test B postemergence herbicide test; assay type: in vivo, Triticum aestivum; set-up: key to Wheat plant response rating: 0 = no effect, 100 = complete control; details: scale 0 (no effect) to 100 (complete control); for Plant response rating, Wheat: Postemergence, 500 g ai/ha, visual rating after 13 to 15 days; for Wheat plant response rating: postemergence, 125 g ai/ha, visual rating
Outline: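 Treated at 2-leaf (paddy) or 1–4-leaf, 2–18 cm (postemergence); greenhouse 13–15 d; visual score vs control, 0 none to 100 complete control; dash = not tested.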

giant foxtail = assay: Test B pre-/postemergence herbicide test; assay type: in vivo, Setaria faberi; details: for Foxtail, Giant plant response rating: postemergence, visual rating
Outline: as §2

large crabgrass = assay: Test B pre-/postemergence herbicide test; assay type: in vivo, Digitaria sanguinalis; details: for Crabgrass, Large plant response rating: postemergence, visual rating
Outline: as §2

blackgrass = assay: Test B postemergence herbicide test; assay type: in vivo, Alopecurus myosuroides; details: scale 0 (no effect) to 100 (complete control); for Plant response rating, Blackgrass: Postemergence, 500 g ai/ha, visual rating after 13 to 15 days; for Blackgrass plant response rating: postemergence, 125 g ai/ha, visual rating
Outline: as §3

Surinam grass = assay: Test B pre-/postemergence herbicide test; assay type: in vivo, Urochloa decumbens; details: for Surinam Grass plant response rating: postemergence, visual rating
Outline: as §2

[2] = test system: small flower umbrella sedge; assay: Test B flooded paddy test; assay type: in vivo, Cyperus difformis; details: 1000 g ai/ha, visual rating, scale 0 to 100 (0 no effect, 100 complete control), 13 to 15 days
Outline: as §3

barnyardgrass [3] = assay: Test B pre-/postemergence herbicide test; assay type: in vivo, Echinochloa crus-galli; details: for Barnyardgrass plant response rating: postemergence, visual rating
Outline: as §1

lambsquarters = assay: Test B pre-/postemergence herbicide test; assay type: in vivo, Chenopodium album; details: for Lambsquarters plant response rating: postemergence, visual rating
Outline: as §2

velvetleaf = assay: Test B pre-/postemergence herbicide test; assay type: in vivo, Abutilon theophrasti; details: for Velvetleaf plant response rating: postemergence, visual rating
Outline: as §2

[4] = 500 g ai/ha, visual rating 0-100, 0 no effect, 100 complete control, preemergence
[5] = Postemergence, 500 g ai/ha, visual rating after 13 to 15 days, scale 0 (no effect) to 100 (complete control)
[6] = 125 g ai/ha, scale 0 (no effect) to 100 (complete control)
[7] = preemergence, 125 g ai/ha, 0 to 100 scale, 0 is no effect, 100 is complete control

CCn1nc(C(C)(C)C)cc1C(=O)Nc1cccc(C(C)=NO)c1 [Compound 108]
70: Cocklebur plant response rating (cocklebur; [6]) | Rice plant response rating (rice) | Plant response rating, Morningglory (morningglory; [4]) | Plant response rating, Crabgrass, Large (large crabgrass; [5]) | Plant response rating, Barnyardgrass (barnyardgrass [3]; [5]) | Plant response rating, Velvetleaf (velvetleaf; [5])
100: Plant response rating, Pigweed (pigweed; [4]) | Plant response rating, Pigweed (pigweed; [5]) | Plant response rating, Morningglory (morningglory; [5]) | Plant response rating, Foxtail, Giant (giant foxtail; [4]) | Plant response rating, Crabgrass, Large (large crabgrass; [4]) | Plant response rating, Crabgrass, Large (large crabgrass; [7]) | Plant response rating, Lambsquarters (lambsquarters; [4]) | Plant response rating, Lambsquarters (lambsquarters; [5]) | Plant response rating, Lambsquarters (lambsquarters; [7]) | Plant response rating, Velvetleaf (velvetleaf; [4])
0: Blackgrass plant response rating (blackgrass)
90: Plant response rating, Cocklebur (cocklebur; [5]) | Plant response rating, Pigweed (pigweed; [7]) | Ducksalad plant response rating (ducksalad) | Plant response rating, Foxtail, Giant (giant foxtail; [7]) | Sedge, Umbrella plant response rating [2] | Plant response rating, Barnyardgrass (barnyardgrass [3]; [4]) | Lambsquarters plant response rating (lambsquarters; [6])
30: Plant response rating, Cocklebur (cocklebur; [4]) | Morningglory plant response rating (morningglory; [6]) | Plant response rating, Foxtail, Giant (giant foxtail; [5])
20: Plant response rating, Wheat (wheat) | Crabgrass, Large plant response rating (large crabgrass; [6]) | Plant response rating, Blackgrass (blackgrass)
10: Plant response rating, Cocklebur (cocklebur; [7]) | Wheat plant response rating (wheat) | Foxtail, Giant plant response rating (giant foxtail; [6]) | Plant response rating, Surinam Grass (Surinam grass; [5]) | Surinam Grass plant response rating (Surinam grass; [6]) | Barnyardgrass plant response rating (barnyardgrass [3]; [6])
80: Pigweed plant response rating (pigweed; [6]) | Barnyardgrass plant response rating (barnyardgrass [1]) | Plant response rating, Surinam Grass (Surinam grass; [4]) | Plant response rating, Barnyardgrass (barnyardgrass [3]; [7]) | Plant response rating, Velvetleaf (velvetleaf; [7])
50: Plant response rating, Morningglory (morningglory; [7]) | Plant response rating, Surinam Grass (Surinam grass; [7]) | Velvetleaf plant response rating (velvetleaf; [6])

CC(=NO)c1cccc(NC(=O)c2cc(C(C)(C)C)nn2CC(F)(F)F)c1 [Compound 112]
100: Plant response rating, Cocklebur (cocklebur; [5]) | Plant response rating, Pigweed (pigweed; [5]) | Plant response rating, Lambsquarters (lambsquarters; [5])
50: Barnyardgrass plant response rating (barnyardgrass [1]) | Barnyardgrass plant response rating (barnyardgrass [3]; [6]) | Plant response rating, Barnyardgrass (barnyardgrass [3]; [7]) | Plant response rating, Velvetleaf (velvetleaf; [4])
80: Ducksalad plant response rating (ducksalad) | Sedge, Umbrella plant response rating [2]
10: Plant response rating, Foxtail, Giant (giant foxtail; [7])
20: Morningglory plant response rating (morningglory; [6]) | Wheat plant response rating (wheat) | Plant response rating, Foxtail, Giant (giant foxtail; [4]) | Foxtail, Giant plant response rating (giant foxtail; [6]) | Crabgrass, Large plant response rating (large crabgrass; [6]) | Plant response rating, Crabgrass, Large (large crabgrass; [7]) | Plant response rating, Blackgrass (blackgrass) | Blackgrass plant response rating (blackgrass) | Plant response rating, Surinam Grass (Surinam grass; [4]) | Plant response rating, Surinam Grass (Surinam grass; [5]) | Surinam Grass plant response rating (Surinam grass; [6]) | Plant response rating, Surinam Grass (Surinam grass; [7])
70: Rice plant response rating (rice) | Plant response rating, Barnyardgrass (barnyardgrass [3]; [4]) | Plant response rating, Barnyardgrass (barnyardgrass [3]; [5]) | Plant response rating, Velvetleaf (velvetleaf; [5])
60: Cocklebur plant response rating (cocklebur; [6]) | Plant response rating, Morningglory (morningglory; [4])
90: Plant response rating, Pigweed (pigweed; [4]) | Pigweed plant response rating (pigweed; [6]) | Plant response rating, Crabgrass, Large (large crabgrass; [4]) | Plant response rating, Lambsquarters (lambsquarters; [4]) | Lambsquarters plant response rating (lambsquarters; [6])
30: Plant response rating, Morningglory (morningglory; [5]) | Plant response rating, Wheat (wheat) | Plant response rating, Foxtail, Giant (giant foxtail; [5]) | Plant response rating, Crabgrass, Large (large crabgrass; [5]) | Velvetleaf plant response rating (velvetleaf; [6])
0: Plant response rating, Cocklebur (cocklebur; [4]) | Plant response rating, Cocklebur (cocklebur; [7]) | Plant response rating, Pigweed (pigweed; [7]) | Plant response rating, Morningglory (morningglory; [7]) | Plant response rating, Lambsquarters (lambsquarters; [7]) | Plant response rating, Velvetleaf (velvetleaf; [7])
